Source: patent US8466145B2, “Dipeptidyl peptidase IV inhibitors” (Orchid Chemicals & Pharmaceuticals Limited, priority 2009, dated 2013)

What was measured:
DPP-IV = target: T1, DPP-IV (Homo sapiens, UniProt P27487); assay: DPP-IV inhibition, compounds screened by using human plasma; assay type: biochemical; details: screened by using human plasma (starred examples); for inhibition at 0.3 µM: 300 nM compound concentration
T1 construct: from tissue; host or cells: human plasma (per the earlier reading of the assay)

[1] = target: T2, human recombinant Dipeptidyl peptidase IV enzyme (hrDPP IV) (Homo sapiens, UniProt P27487); assay: DPP IV assay, cleavage of H-Gly-Pro-AMC by human recombinant DPP-IV enzyme; assay type: biochemical
T2 construct: purchased R&D systems
How it was run: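 Human recombinant DPP-IV (3 ng) preincubated 60 min at room temperature with compound in 25 mM HEPES, 140 mM NaCl, 1% BSA, pH 7.8, in duplicate. Reaction with H-Gly-Pro-AMC (10 μL of 100 μM) for 20 min, stopped with acetic acid; AMC fluorescence 360/460 nm, IC50 from percent inhibition.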

[2] = target: T3, human recombinant Dipeptidyl peptidase 8 enzyme (hrDPP 8) (Homo sapiens, UniProt Q6V1X1); assay: DPP 8 assay, cleavage of H-Ala-Pro-AFC; assay type: biochemical; details: selectivity for DPP-IV over DPP 8
T3 construct: purchased R&D systems
Experimental: DPP 8 activity was determined by the cleavage rate of 7-amino 4-fluoromethylcoumarin (AFC) from the substrate H-Ala-Pro-AFC. In brief, the assay was conducted by adding 30 ng of human recombinant Dipeptidyl peptidase 8 enzyme (hrDPP 8, available commercially from R&D systems) in 70 μL of the assay buffer (50 mM TRIS and 5 mM EDTA, pH 7.7) to a 96 well black flat bottom microtitre plate. Test compound was added as 10 μL additions to all wells except blank and total activity wells. After incubation of test substance with enzyme for 30 minutes at room temperature, 10 μL of 100 μM substrate H-Ala-Pro-AFC was added. After mixing, the plate was left for 30 minutes at room temperature. Then the reaction was terminated by addition of 10 μL of 25% Glacial Acetic Acid. Fluorescence was measured using Spectra Max Gemini XS (Molecular Devices, USA) at an excitation filter of 400 nm and emission filter of 505 nm.
Test compound dissolved in DMSO were diluted with assay buffer at different concentrations and tested in duplicates. Percentage inhibition was calculated with respect to total activity. IC50 value was calculated using Prism Software.

[3] = target: T4, human recombinant Dipeptidyl peptidase 9 enzyme (hrDPP 9) (Homo sapiens, UniProt Q86TI2); assay: DPP 9 assay, cleavage of H-Gly-Pro-AMC; assay type: biochemical; details: selectivity for DPP-IV over DPP 9
T4 construct: purchased R&D systems
Experimental: DPP 9 activity was determined by the cleavage rate of 7-amino 4-methylcoumarin (AMC) from the substrate H-Gly-Pro-AMC. In brief, the assay was conducted by adding 10 ng of human recombinant Dipeptidyl peptidase 9 enzyme (hrDPP 9, available commercially from R&D systems) in 70 μL of the assay buffer (50 mM TRIS and 5 mM EDTA, pH 7.7) to a 96 well black flat bottom microtitre plate. Test compound was added as 10 μL additions to all wells except blank and total activity wells. After incubation of test substance with enzyme for 30 minutes at room temperature, 10 μL of 100 μM substrate H-Gly-Pro-AMC was added. After mixing, the plate was left for 30 minutes at room temperature. Then the reaction was terminated by addition of 10 μL of 25% Glacial Acetic Acid. Fluorescence was measured using Spectra Max Gemini XS (Molecular Devices, USA) at an excitation filter of 360 nm and emission filter of 460 nm.
Test compound dissolved in DMSO were diluted with assay buffer at different concentrations and tested in duplicates. Percentage inhibition was calculated with respect to total activity. IC50 value was calculated by using Prism Software.

C57BL/6 mice = assay: Oral glucose tolerance test; assay type: in vivo; details: compound 10 mg/kg; for Antihyperglycemic activity, reduction in AUC (blood glucose), Time 0.50 hr: glucose 2 g/kg challenge 0.50 hr after compound administration; for Antihyperglycemic activity, reduction in AUC (blood glucose), Time 6.00 hr: glucose 2 g/kg challenge 6.00 hr after compound administration, NA = No activity
Experimental: Effect of compound on glucose tolerance was examined in 7 week old C57BL/6 mice. Animals were kept for 18 h fasting and were challenged with glucose (2 g/kg) 30 min after compound (10 mg/kg) administration. Blood samples for glucose measurement were obtained by tail bleed pre dose and at serial time points after the glucose load (30, 60 and 120 minutes). Blood glucose estimation was done by using ContourTS active strips on glucometer (Bayer). To find the time response on glucose excursion, animals were challenged with glucose at different time point after compound administration (0.5, 2, 4, 6, 8, 12 or 24 hours) at blood glucose was measured at pre (0 minute) and post (30, 60 and 120 minutes) glucose load.
Results of blood glucose were expressed as area under curve (AUC) was calculated using Prism software.

T2 sequence (P27487 whole entry): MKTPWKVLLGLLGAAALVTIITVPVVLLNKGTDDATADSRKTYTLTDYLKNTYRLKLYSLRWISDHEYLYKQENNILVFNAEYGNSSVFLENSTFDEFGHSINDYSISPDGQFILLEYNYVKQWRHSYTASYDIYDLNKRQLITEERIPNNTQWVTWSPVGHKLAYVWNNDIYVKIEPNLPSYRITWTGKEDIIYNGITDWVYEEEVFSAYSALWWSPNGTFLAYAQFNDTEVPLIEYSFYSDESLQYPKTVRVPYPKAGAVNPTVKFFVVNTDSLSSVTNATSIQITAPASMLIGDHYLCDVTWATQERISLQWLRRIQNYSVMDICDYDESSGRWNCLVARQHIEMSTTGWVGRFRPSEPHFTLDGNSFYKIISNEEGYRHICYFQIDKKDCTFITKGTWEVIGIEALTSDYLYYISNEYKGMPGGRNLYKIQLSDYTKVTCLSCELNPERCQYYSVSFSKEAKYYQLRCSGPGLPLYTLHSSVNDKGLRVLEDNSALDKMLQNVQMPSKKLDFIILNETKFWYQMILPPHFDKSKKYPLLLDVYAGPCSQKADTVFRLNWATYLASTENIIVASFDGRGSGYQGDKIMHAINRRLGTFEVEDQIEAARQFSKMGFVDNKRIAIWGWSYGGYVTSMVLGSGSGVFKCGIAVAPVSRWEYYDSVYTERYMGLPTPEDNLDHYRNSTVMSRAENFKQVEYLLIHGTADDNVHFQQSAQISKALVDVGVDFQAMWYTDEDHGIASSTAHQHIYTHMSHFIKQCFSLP
T4 sequence (Q86TI2 whole entry): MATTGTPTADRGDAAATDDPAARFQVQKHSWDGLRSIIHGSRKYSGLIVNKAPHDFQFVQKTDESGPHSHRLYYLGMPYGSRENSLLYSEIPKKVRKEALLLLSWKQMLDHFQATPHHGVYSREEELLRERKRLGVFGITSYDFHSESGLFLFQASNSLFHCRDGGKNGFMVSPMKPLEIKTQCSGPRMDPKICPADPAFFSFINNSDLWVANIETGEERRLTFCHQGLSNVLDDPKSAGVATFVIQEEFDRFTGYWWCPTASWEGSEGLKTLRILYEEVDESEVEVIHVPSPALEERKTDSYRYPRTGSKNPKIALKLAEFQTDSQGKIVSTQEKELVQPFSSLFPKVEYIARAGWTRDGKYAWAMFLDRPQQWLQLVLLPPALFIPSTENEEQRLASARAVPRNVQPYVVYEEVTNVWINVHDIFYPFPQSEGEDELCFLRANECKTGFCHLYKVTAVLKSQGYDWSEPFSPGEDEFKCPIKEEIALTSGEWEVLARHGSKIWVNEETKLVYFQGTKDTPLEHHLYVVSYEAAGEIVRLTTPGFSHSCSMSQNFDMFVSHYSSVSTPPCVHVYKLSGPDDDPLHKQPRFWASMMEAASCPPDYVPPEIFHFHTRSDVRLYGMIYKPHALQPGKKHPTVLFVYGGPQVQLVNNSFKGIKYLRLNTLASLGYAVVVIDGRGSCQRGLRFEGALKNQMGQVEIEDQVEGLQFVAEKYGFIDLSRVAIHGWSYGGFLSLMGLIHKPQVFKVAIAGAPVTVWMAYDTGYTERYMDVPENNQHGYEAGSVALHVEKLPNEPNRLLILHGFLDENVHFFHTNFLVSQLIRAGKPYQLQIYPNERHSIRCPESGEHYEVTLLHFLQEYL
T1 sequence (P27487 39-766 limits assumed): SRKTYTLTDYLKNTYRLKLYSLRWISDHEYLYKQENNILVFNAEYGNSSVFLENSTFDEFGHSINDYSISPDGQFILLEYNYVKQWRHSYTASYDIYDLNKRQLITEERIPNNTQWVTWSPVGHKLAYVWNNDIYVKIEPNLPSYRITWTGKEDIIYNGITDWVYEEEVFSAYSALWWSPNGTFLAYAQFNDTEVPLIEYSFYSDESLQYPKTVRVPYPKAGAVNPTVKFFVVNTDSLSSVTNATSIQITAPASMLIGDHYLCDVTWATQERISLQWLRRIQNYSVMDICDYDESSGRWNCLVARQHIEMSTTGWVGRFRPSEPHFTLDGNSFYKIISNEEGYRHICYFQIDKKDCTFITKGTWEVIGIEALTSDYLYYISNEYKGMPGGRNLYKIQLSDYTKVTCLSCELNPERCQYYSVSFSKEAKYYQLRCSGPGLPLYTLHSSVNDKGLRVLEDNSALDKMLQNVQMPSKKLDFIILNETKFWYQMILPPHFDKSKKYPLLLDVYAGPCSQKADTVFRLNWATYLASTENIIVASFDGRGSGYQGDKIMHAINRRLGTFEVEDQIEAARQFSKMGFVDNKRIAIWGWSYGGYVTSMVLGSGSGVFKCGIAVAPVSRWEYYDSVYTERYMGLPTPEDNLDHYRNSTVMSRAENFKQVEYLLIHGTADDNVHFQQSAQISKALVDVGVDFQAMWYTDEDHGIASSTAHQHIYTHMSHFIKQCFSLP
T3 sequence (Q6V1X1 whole entry): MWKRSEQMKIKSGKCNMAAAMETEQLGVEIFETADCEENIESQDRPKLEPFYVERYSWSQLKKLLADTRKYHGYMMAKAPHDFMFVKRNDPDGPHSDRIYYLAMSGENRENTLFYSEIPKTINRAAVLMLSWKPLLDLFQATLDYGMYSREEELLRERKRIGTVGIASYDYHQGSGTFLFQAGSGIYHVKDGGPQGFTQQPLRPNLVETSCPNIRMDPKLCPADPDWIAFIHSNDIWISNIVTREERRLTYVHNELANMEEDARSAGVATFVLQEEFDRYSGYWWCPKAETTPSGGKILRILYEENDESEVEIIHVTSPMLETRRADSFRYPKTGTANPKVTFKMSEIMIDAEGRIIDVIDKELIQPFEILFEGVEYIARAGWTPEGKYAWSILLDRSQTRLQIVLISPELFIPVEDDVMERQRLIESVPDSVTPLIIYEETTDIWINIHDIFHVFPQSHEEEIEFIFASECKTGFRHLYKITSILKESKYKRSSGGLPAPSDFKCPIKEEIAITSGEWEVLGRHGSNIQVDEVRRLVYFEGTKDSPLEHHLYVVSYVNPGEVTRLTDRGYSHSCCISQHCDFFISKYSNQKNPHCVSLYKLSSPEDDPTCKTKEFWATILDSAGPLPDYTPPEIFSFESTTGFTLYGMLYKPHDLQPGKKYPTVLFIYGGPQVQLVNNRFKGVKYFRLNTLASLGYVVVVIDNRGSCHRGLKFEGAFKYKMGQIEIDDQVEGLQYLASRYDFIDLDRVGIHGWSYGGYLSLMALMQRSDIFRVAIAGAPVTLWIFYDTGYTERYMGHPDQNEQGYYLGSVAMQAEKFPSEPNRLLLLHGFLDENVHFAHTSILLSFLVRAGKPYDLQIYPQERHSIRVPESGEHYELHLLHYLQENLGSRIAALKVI

Row | Compound | IC50 [1] [nM] | Selectivity (Fold) DPP 8 [2] [Fold] | Selectivity (Fold) DPP 9 [3] [Fold] | melting point [°C] | Antihyperglycemic activity, reduction in AUC (blood glucose), Time 0.50 hr (C57BL/6 mice) [%] | also measured
1 | CC1(C)[C@@H](Cn2cncn2)CC[C@@]1(C)NCC(=O)N1C[C@H](F)C[C@H]1C#N [Example 2, (2S,4R)-1-(2-((1R,3S)-3-((1H-1,2,4-Triazol-1-yl)methyl)-1,2,2-trimethylcyclopentylamino)acetyl)-4-fluoropyrrolidine-2-carbonitrilemethane sulfonate] |  |  |  |  |  | inhibition at 0.3 µM (DPP-IV): 10.5%
2 | CC1(C)[C@H](Cn2cncn2)CC[C@]1(C)NCC(=O)N1C[C@H](F)C[C@H]1C#N [Example 5, (2S,4R)-1-(2-((1S,3R)-3-((1H-1,2,4-Triazol-1-yl)methyl)-1,2,2-trimethylcyclopentylamino)acetyl)-4-fluoropyrrolidine-2-carbonitrilemethanesulfonate] |  |  |  |  |  | inhibition at 0.3 µM (DPP-IV): 4.1%
3 | CC1(C)[C@@H](c2nc(-c3ccc(F)cc3)no2)CC[C@@]1(C)NCC(=O)N1C[C@@H](F)C[C@H]1C#N [Example 48, (2S,4S)-4-Fluoro-1-(2-((1R,3S)-3-(3-(4-fluorophenyl)-1,2,4-oxadiazol-5-yl)-1,2,2-trimethyleyclopentylamino)acetyl)pyrrolidine-2-carbonitrile] |  |  |  |  |  | inhibition at 0.3 µM (DPP-IV): 4.46%
4 | CC1(C)[C@@H](NCC(=O)N2C[C@@H](F)C[C@H]2C#N)CC[C@@]1(C)c1nc(-c2ccc(F)cc2)no1 [Example 65, (2S,4S)-4-Fluoro-1-(2-((1S,3R)-3-(3-(4-fluorophenyl)-1,2,4-oxadiazol-5-yl)-2,2,3-trimethylcyclopentylamino)acetyl)pyrrolidine-2-carbonitrile] |  |  |  |  |  | IC50 (DPP-IV): 238 nM
5 | CC1(C)[C@@H](NCC(=O)N2CCC[C@H]2C#N)CC[C@@]1(C)c1nc(-c2ccc(F)cc2)no1 [Example 66, (S)-1-(2-((1S,3R)-3-(3-(4-Fluorophenyl)-1,2,4-oxadiazol-5-yl)-2,2,3-trimethylcyclopentylamino)acetyl)pyrrolidine-2-carbonitrile methanesulfonate] |  |  |  |  |  | inhibition at 0.3 µM (DPP-IV): 23.2%
6 | CC1(C)[C@@H](NCC(=O)N2C[C@@H](F)C[C@H]2C#N)CC[C@@]1(C)c1nc(-c2ccncc2)no1 [Example 70, (2S,4S)-4-Fluoro-1-(2-((1S,3R)-2,2,3-trimethyl-3-(3-(pyridin-4-yl)-1,2,4-oxadiazol-5-yl)cyclopentylamino)acetyl)pyrrolidine-2-carbonitrile] | 26.7 | >550 | >25 | 149 to 153 |  | 
7 | CC1(C)[C@@H](NCC(=O)N2C[C@@H](F)C[C@H]2C#N)CC[C@@]1(C)c1nc(-c2cnccn2)no1 [Example 72, (2S,4S)-4-Fluoro-1-(2-((1S,3R)-2,2,3-trimethyl-3-(3-(pyrazin-2-yl)-1,2,4-oxadiazol-5-yl)cyclopentylamino)acetyl)pyrrolidine-2-carbonitrile] | 32.3 | >1250 | >35 | 65 to 70 |  | 
8 | Cc1noc([C@@]2(C)CC[C@@H](NCC(=O)N3C[C@@H](F)C[C@H]3C#N)C2(C)C)n1 [Example 73, (2S,4S)-4-Fluoro-1-(2-((1R,3S)-2,2,3-trimethyl-3-(3-methyl-1,2,4-oxadiazol-5-yl)cyclopentylamino)acetyl)pyrrolidine-2-carbonitrile] | 41 | >2300 | >150 | 144 to 147 |  | 
9 | Cc1noc([C@]2(C)CC[C@H](NCC(=O)N3C[C@@H](F)C[C@H]3C#N)C2(C)C)n1 [Example 74, (2S,4S)-4-Fluoro-1-(2-((1S,3R)-2,2,3-trimethyl-3-(3-methyl-1,2,4-oxadiazol-5-yl)cyclopentylamino)acetyl)pyrrolidine-2-carbonitrile] | 54.7 | >900 | >25 | 137 to 141 |  | 

Continued, in another order:

Row | IC50 [1] [nM] | Selectivity (Fold) DPP 8 [2] [Fold] | Selectivity (Fold) DPP 9 [3] [Fold] | melting point [°C] | Compound | Antihyperglycemic activity, reduction in AUC (blood glucose), Time 0.50 hr (C57BL/6 mice) [%] | also measured
10 | 11 ± 0.16 | >27000 | >5000 | 132 to 135 | CC1(C)[C@H](Cn2cncn2)CC[C@]1(C)NCC(=O)N1C[C@@H](F)C[C@H]1C#N [Example 3, (2S,4S)-1-(2-((1S,3R)-3-((1H-1,2,4-Triazol-1-yl)methyl)-1,2,2-trimethylcyclopentylamino)acetyl)-4-fluoropyrrolidine-2-carbonitrile] | 53.89 | 
11 |  |  |  | 123 to 127 | CC1(C)[C@@H](CNC(=O)c2ccccc2F)CC[C@@]1(C)NCC(=O)N1C[C@@H](F)C[C@H]1C#N [Example 21, N-(((1S,3R)-3-(2-((2S,4S)-2-Cyano-4-fluoropyrrolidin-1-yl)-2-oxoethylamino)-2,2,3-trimethylcyclopentyl)methyl)-2-fluorobenzamide] |  | IC50 (DPP-IV): 330 nM
12 | 7.61 | >13000 | >1100 | 171 to 174 | CC1(C)[C@H](CN2CCCS2(=O)=O)CC[C@]1(C)NCC(=O)N1C[C@@H](F)C[C@H]1C#N [Example 29, (2S,4S)-1-(2-((1S,3R)-3-[(1,1-Dioxidoisothiazolidin-2-yl)methyl]-1,2,2-trimethyleyclopentylamino)acetyl)-4-fluoropyrrolidine-2-carbonitrile] | 42.52 | Antihyperglycemic activity, reduction in AUC (blood glucose), Time 6.00 hr (C57BL/6 mice): 20.21%
13 | 6.01 | >9500 | >1900 | 151 to 154 | CC1(C)[C@H](Cn2cnnn2)CC[C@]1(C)NCC(=O)N1C[C@@H](F)C[C@H]1C#N [Example 32, (2S,4S)-1-(2-((1S,3R)-3-((1H-Tetrazol-1-yl)methyl)-1,2,2-trimethylcyclopentylamino)acetyl)-4-fluoropyrrolidine-2-carbonitrile] | 17.80 | 
14 | 8.94 | >10000 | >1500 | 163 to 166 | CC1(C)[C@H](CN2CCOCC2)CC[C@]1(C)NCC(=O)N1C[C@@H](F)C[C@H]1C#N [Example 34, (2S,4S)-4-Fluoro-1-(2-((1S,3R)-1,2,2-trimethyl-3-(morpholinomethyl)cyclopentylamino)acetyl)pyrrolidine-2-carbonitrile] | 54.32 | 
15 | 6.59 | >19000 | >7000 | 147 to 149 | CC1(C)[C@H](Cc2noc(CO)n2)CC[C@]1(C)NCC(=O)N1C[C@@H](F)C[C@H]1C#N [Example 60, (2S,4S)-4-Fluoro-1-(2-((1S,3S)-3-((5-(hydroxymethyl)-1,2,4-oxadiazol-3-yl)methyl)-1,2,2-trimethylcyclopentylamino)acetyl)pyrrolidine-2-carbonitrile] | 47.70 | inhibition at 0.3 µM ([1]; 300 nM compound concentration): 94.7%; Antihyperglycemic activity, reduction in AUC (blood glucose), Time 6.00 hr (C57BL/6 mice): 51.55%; Antihyperglycemic activity, reduction in AUC (blood glucose), Time 12.00 hr (C57BL/6 mice; glucose 2 g/kg challenge 12.00 hr after compound administration): 29.62%
